Source: paper PMC12067741, “Inhibition of SOD1 trimerization is a novel drug target for ALS disease” (Translational Neurodegeneration, 2025)
Entries after “also recorded” stand apart in the source; their conditions may differ.

Legend:
[1] = Plasma stability; type: in vitro ADME; conditions: cynomolgus monkey plasma, after 120 min of incubation
[2] = molecular target: CYP 1A2 (Homo sapiens, UniProt P05177); test: CYP inhibition (direct); type: in vitro ADME; conditions: CYP 1A2, direct inhibition
Source text: Fig. S8. Preclinical data of PRG-A-04 a Plasma protein binding b CYP inhibition(direct) […]
d Mouse Brain Tissue penetration
For the convenience of calculation, […]

[3] = test system: MT-SOD1; test: SOD1 oligomerization assay in cells transfected with MT-SOD1 (glutaraldehyde fixation, SDS-PAGE); type: cell-based
Procedure: For SDS-PAGE, proteins were extracted from cells with the RIPA buffer (50 mmol/L Tris–Cl, pH 7.5, 150 mmol/L NaCl, 1% NP-40, 0.1% SDS and […]). To detect the oligomer status, the cells were harvested with the TNNI buffer (50 mmol/L Tris–Cl, pH 7.5, 150 mmol/L NaCl, 0.3% NP-40, 100 mmol/L iodoacetamide, protease inhibitor cocktails) and reacted with 0.04% glutaraldehyde (Glu) for 30 min, and then SDS-PAGE was performed using the pan-SOD1 antibody. Samples were separated via SDS-PAGE and transferred to PVDF membrane. Blotted membranes were blocked by 3% skim milk containing TBST buffer for 1 h and incubated with specific antibodies. The following primary antibodies were used: pan-SOD1 (GTX100554) from Genetex (Irvine, CA); misfolded SOD1-specific antibody (B8H10) from MediMabs (Montreal, Canada); Actin (sc-1616), GST (sc-138), and GFP (Green fluorescent protein; sc-8036) antibodies from Santa Cruz Biotechnology (Santa Cruz, CA); TDP-43 antibody (10782–2-AP) from Proteintech (Rosemont, IL); anti-FLAG (Sigma; F3165) from Sigma-Aldrich (St. Louis, MO). HRP-conjugated goat anti-mouse, goat anti-rabbit and mouse anti-goat antibodies (Pierce, Thermo Fisher Scientific, Inc., Rockford, IL) were used as secondary antibodies. The blots were detected using an ECL assay (Advansta) and images were acquired using the […] ImageQuant 800 (Cytiva) system and an X-Ray film detector. […]

[4] = test system: SOD1^G93A−Tg mice; test: Efficacy of i.p. injection in SOD1G93A-Tg ALS mice; type: in vivo; conditions: for reduction of rotarod latency to fall at 16 weeks compared to 11 weeks: vehicle ~43%
Procedure: To evaluate the therapeutic effect of PRG-A-04, SOD1^G93A−Tg mice received intraperitoneal injection of vehicle (DMSO, n = 6) or PRG-A-04 (20 mg/kg, n = 4; 50 mg/kg, n = 6) twice per week from 11 weeks for 6–8 weeks. WT mice (n = 5) served as negative littermates of the SOD1^G93A−Tg mice. WT mice were treated in the same conditions.
For histology analysis, SOD1^G93A−Tg mice received intraperitoneal injections starting from 11 weeks and sacrificed at 17 weeks (vehicle, n = 3; PRG-A-04 20 mg/kg, n = 2, 50 mg/kg, n = 2) and 19 weeks (vehicle, n = 2; PRG-A-04 50 mg/kg, n = 2). WT male mice (n = 5) were sacrificed at 17 weeks. Mice were sacrificed by i.p. (intraperitoneal) injection of avertin at a volume of 150–200 μL. The spinal cord was obtained and fixed in 4% paraformaldehyde for 48 h and embedded in paraffin blocks. The embedded tissues (cervical region of the spinal cord) were sectioned at 5 µm by Accu-Cut ® SRMTM 200 Rotary Microtome (Sakura Finetek, Torrance, CA) and transferred onto adhesive-coated slides (Marienfeld Laboratory Glassware, Lauda-Königshofen, Germany). After deparaffin and rehydration, the slides were stained with hematoxylin and eosin (H&E) to detect spinal cord neurons. In addition, immunohistochemistry (IHC) with antibodies for neuronal markers MAP2 (ab32454, Abcam, Cambridge, UK) and NeuN (ab177487, Abcam) as well as for SOD1 (GTX100554, Genetex, Irvine, CA) was performed. The intensity of MAP2 and NeuN was calculated with the Image J software (version 1.54p, National Institute of Mental Health, MD). For counting intensity, IHC images were divided using the “color deconvolution” function in Image J software and the DAB signal was quantified.
Age-matched WT mice were tested as positive control. […] Mouse movement was recorded.
PRG-A-04 (20 mg/kg or 50 mg/kg) was injected intraperitoneally (i.p., twice a week) in 11-week-old SOD1^G93A−Tg mice to verify its efficacy in vivo (Fig. S4a). […] We performed the rotarod test to monitor muscle strength.
11 weeks old mice were injected with 20 mg/kg and 50 mg/kg, twice per week for 6~8 weeks and checked the motility with rotarod test. To check the histology analysis, some mouse groups were sacrificed and the spinal cord was isolated at 16 weeks and 18 weeks. b, […]
(d) The 11 weeks old mice were injected with PRG-A-04 for 6 weeks and sacrificed at 16 weeks. The cervical spinal cord was stained with H&E. Scale bar; […]. (e) Representative images […]
The tissue lysates were harvest with TNNI buffer and incubation for 30 min then fixed with 0.04% glutaraldehyde (Glu) for 30min. Samples were separated using SDS-PAGE. Arrow indicates human SOD1(hSOD1- […]
MAP2 (e) and the number of NeuN positive cells (f) were counted with Image J software.

CYP 1A2, sequence (P05177 whole entry): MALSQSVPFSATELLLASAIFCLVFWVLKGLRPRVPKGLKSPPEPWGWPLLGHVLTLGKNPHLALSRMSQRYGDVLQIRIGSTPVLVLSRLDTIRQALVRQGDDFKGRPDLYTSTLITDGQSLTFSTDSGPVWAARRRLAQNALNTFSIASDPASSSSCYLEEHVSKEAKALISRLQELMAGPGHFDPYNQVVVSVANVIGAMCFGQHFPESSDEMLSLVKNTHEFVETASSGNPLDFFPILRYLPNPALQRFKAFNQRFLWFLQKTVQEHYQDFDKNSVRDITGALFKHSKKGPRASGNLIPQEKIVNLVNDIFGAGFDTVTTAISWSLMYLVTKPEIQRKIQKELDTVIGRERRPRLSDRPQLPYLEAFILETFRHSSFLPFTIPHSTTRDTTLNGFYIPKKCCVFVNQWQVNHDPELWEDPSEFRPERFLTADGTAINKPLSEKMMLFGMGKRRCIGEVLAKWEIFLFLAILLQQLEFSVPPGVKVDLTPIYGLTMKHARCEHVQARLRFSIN

COc1cc(C=CCOC2Cc3cc4ccc(=O)oc4cc3OC2(C)C)ccc1[N+](=O)[O-] (centres unmarked) [PRG-A-04]
stability in plasma [1]: stable
IC50 [2]: > 10 µM
effect on SOD1 dimer formation ([3]; cells transfected with MT-SOD1): did not affect dimer formation
effect on MT-SOD1 aggregation / oligomerization ([3]; cells transfected with MT-SOD1 vectors): suppressed the MT-SOD1 aggregation; also recorded: blocked aggregation of various SOD1 mutants; also recorded: suppressed SOD1 oligomerization by MT-SOD1 in a dose-dependent manner
reduction of rotarod latency to fall at 16 weeks compared to 11 weeks ([4]; i.p. 20 mg/kg twice a week from 11 weeks (first of 'respectively')): 14.4%
reduction of rotarod latency to fall at 16 weeks compared to 11 weeks ([4]; i.p. 50 mg/kg twice a week from 11 weeks (second of 'respectively')): 20.1%
motor function in open field test ([4]; i.p. 50 mg/kg, age of 18 weeks): significantly improved motor function
SOD1 inclusion bodies in spinal cord ([4]; i.p. 20 and 50 mg/kg, immunohistochemistry): reduced SOD1 inclusion bodies
toxicity regarding body weight loss ([4]; i.p. 20 or 50 mg/kg twice a week): no cytotoxicity regarding body weight loss
number of neurons in cervical region of the spinal cord ([4]; i.p., histology at 16 weeks, versus vehicle): increased the number of neurons
insolubility and oligomerization of SOD1 in spinal cord ([4]; i.p., western blotting of cervical spinal cord lysates): decrease of insolubility and oligomerization of SOD1
